Paper PMC10916743 (RSC Advances, 2024)
Several values for one entry are separate records, joined by “and”; a condition that tells them apart may be missing. Equal entries are not always repeated.

How the values were obtained:
HepG2 cell line = assay: MTT cytotoxicity assay, HepG2; type: cell-based; conditions: for IC50: Homo sapiens, HepG2, read-out: IC50 HepG2; for Selectivity index: fold more toxic against HepG2 than VERO cells: VERO IC50 / HepG2 IC50
MCF-7 cell line = assay: MTT cytotoxicity assay, MCF-7; type: cell-based; conditions: for IC50: Homo sapiens, MCF7, read-out: IC50 MCF-7; for Selectivity index: fold more toxic in MCF-7 than in VERO cells: VERO IC50 / MCF-7 IC50
HCT116 cell line = assay: MTT cytotoxicity assay, HCT116; type: cell-based; conditions: for IC50: Homo sapiens, HCT-116, read-out: IC50 HCT116; for Selectivity index: fold grander lethalness in HCT116 than in VERO cells: VERO IC50 / HCT116 IC50
A549 cell line = assay: MTT cytotoxicity assay, A549; type: cell-based; conditions: for IC50: Homo sapiens, A549, read-out: IC50 A549; for Selectivity index: fold more toxicity in A549 than in VERO cells: VERO IC50 / A549 IC50
EGFR^WT = EGFR^WT (Homo sapiens, UniProt P00533); assay: In vitro EGFR^WT kinase inhibitory assay; type: biochemical; conditions: mean ± SD of three separate experiments
Sequence of EGFR^WT (P00533 25-1210): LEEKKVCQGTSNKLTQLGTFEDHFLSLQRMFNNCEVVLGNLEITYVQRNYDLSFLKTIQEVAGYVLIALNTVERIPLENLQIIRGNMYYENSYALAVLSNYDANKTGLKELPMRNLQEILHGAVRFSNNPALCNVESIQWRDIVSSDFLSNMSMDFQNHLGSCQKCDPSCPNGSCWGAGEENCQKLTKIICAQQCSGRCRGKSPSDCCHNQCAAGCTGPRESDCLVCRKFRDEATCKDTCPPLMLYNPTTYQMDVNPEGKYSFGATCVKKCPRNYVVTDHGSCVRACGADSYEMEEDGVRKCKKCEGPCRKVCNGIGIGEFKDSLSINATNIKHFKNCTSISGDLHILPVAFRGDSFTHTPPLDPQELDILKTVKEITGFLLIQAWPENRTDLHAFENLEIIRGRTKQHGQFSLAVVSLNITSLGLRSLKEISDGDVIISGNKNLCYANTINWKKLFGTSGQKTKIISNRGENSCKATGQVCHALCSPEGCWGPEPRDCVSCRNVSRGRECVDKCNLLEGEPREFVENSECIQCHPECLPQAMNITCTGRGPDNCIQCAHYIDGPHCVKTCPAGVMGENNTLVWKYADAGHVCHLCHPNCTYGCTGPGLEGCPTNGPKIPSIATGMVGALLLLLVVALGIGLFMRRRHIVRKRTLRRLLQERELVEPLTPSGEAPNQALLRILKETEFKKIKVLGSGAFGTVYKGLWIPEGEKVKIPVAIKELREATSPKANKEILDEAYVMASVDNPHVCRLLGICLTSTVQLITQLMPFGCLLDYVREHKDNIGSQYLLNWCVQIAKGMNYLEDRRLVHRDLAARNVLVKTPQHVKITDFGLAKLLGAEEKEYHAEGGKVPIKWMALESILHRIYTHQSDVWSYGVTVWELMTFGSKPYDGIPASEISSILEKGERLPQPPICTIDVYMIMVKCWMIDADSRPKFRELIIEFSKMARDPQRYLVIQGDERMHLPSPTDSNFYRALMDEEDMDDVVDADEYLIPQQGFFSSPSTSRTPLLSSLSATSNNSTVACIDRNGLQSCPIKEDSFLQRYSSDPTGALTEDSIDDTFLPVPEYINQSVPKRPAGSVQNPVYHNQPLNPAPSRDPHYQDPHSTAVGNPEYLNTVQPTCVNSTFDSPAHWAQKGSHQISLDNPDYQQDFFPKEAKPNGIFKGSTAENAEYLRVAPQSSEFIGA

EGFR^T790M = EGFR^T790M (Homo sapiens, UniProt P00533, T790M); assay: In vitro EGFR^T790M kinase inhibitory assay; type: biochemical; conditions: HTRF kinase assay, mean ± SD of three separate experiments
Sequence of EGFR^T790M (P00533 25-1210 T790M): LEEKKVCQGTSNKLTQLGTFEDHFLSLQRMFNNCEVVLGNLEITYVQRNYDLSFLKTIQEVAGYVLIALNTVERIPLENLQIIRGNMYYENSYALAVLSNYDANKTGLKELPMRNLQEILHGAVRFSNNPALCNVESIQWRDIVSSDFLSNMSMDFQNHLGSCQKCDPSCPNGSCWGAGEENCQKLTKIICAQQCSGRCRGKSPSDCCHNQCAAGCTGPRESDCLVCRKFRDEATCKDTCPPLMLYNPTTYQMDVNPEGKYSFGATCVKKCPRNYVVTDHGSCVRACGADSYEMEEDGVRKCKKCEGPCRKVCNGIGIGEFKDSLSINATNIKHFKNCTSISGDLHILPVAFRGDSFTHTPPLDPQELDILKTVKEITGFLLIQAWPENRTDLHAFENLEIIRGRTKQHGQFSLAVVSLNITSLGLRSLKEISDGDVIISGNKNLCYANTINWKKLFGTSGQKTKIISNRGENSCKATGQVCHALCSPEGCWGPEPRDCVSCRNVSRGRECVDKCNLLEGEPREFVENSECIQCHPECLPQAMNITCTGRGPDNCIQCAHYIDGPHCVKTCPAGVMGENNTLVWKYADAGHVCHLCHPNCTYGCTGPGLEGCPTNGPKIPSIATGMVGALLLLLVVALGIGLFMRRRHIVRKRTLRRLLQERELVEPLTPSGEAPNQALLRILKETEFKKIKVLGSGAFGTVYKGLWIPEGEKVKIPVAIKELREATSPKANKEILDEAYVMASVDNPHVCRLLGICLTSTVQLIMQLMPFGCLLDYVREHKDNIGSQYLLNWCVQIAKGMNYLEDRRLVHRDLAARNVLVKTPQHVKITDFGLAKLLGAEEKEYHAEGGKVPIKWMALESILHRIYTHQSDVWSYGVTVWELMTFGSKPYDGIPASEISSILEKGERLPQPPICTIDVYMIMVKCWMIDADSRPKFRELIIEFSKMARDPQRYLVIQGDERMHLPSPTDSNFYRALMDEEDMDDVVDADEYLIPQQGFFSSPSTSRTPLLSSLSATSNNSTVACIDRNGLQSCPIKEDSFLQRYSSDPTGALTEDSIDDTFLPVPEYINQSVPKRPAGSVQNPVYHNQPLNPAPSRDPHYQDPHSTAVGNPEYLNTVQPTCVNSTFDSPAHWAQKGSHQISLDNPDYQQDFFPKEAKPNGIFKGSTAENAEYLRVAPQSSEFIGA

SMILES	IC50 (HepG2 cell line) [µM]	Selectivity index: fold more toxic against HepG2 than VERO cells (HepG2 cell line) [fold]	IC50 (MCF-7 cell line) [µM]	Selectivity index: fold more toxic in MCF-7 than in VERO cells (MCF-7 cell line) [fold]	IC50 (HCT116 cell line) [µM]	Selectivity index: fold grander lethalness in HCT116 than in VERO cells (HCT116 cell line) [fold]	IC50 (A549 cell line) [µM]	Selectivity index: fold more toxicity in A549 than in VERO cells (A549 cell line) [fold]	IC50 (EGFR^WT) [µM]	IC50 (EGFR^T790M)
O=C(Cn1c(=O)c2cc(I)ccc2n(Cc2ccccc2)c1=O)Nc1ccc(-c2nnc(S)o2)cc1 [Compound 16, 2-[1-Benzyl-6-iodo-2,4-dioxo-1,4-dihydroquinazolin-3(2H)-yl]-N-[4-(5-mercapto-1,3,4-oxadiazol-2-yl)phenyl]acetamide]	6.54 ± 1	6.69	7.36 ± 1	5.95	6.67 ± 1	6.56	6.2 ± 1	7.06	0.33 ± 0.25	0.4 µM and 0.43 µM
C=CCn1c(=O)n(CC(=O)Nc2ccc(-c3nnc(C)o3)cc2)c(=O)c2cc(I)ccc21 [Compound 9, 2-[1-Allyl-6-iodo-2,4-dioxo-1,4-dihydroquinazolin-3(2H)-yl]-N-[4-(5-methyl-1,3,4-oxadiazol-2-yl)phenyl]acetamide]	11 ± 1.4		10.4 ± 1.7		8.62 ± 1.5		7.06 ± 1.5		0.8 ± 0.25	0.89 ± 0.5 µM
COC(=O)c1ccc(NC(=O)Cn2c(=O)c3cc(I)ccc3n(Cc3ccccc3)c2=O)cc1 [Compound 14a, Methyl 4-{2-[1-benzyl-6-iodo-2,4-dioxo-1,4-dihydroquinazolin-3(2H)-yl]acetamido}benzoate]	9 ± 1.2	5.58	8.35 ± 1.5	6.01	8.5 ± 1.1	5.91	7.87 ± 1.1	6.38	0.6 ± 0.35	0.75 ± 0.5 µM
C=CCn1c(=O)n(CC(=O)Nc2ccc(-c3nnc(S)o3)cc2)c(=O)c2cc(I)ccc21 [Compound 8, 2-(1-Allyl-6-iodo-2,4-dioxo-1,4-dihydroquinazolin-3(2H)-yl)-N-(4-(5-mercapto-1,3,4-oxadiazol-2-yl)phenyl)acetamide]	11.2 ± 1.9		10.8 ± 1.8		9.31 ± 1.8		9 ± 1.5		0.88 ± 0.35	0.96 ± 0.5 µM
CCOC(=O)c1ccc(NC(=O)Cn2c(=O)c3cc(I)ccc3n(Cc3ccccc3)c2=O)cc1 [Compound 14b, Ethyl 4-{2-[1-benzyl-6-iodo-2,4-dioxo-1,4-dihydroquinazolin-3(2H)-yl]acetamido}benzoate]	5.86 ± 1	8.39	7.03 ± 1.1	6.99	6.15 ± 1.5	7.99	5.77 ± 1.3	8.52	0.25 ± 0.35	0.36 ± 0.1 µM
C=CCn1c(=O)n(CC(=O)Nc2ccc(C(=O)NC)cc2)c(=O)c2cc(I)ccc21 [Compound 5a, 4-{2-[1-Allyl-6-iodo-2,4-dioxo-1,4-dihydroquinazolin-3(2H)-yl]acetamido}-N-methylbenzamide]	15 ± 1.5		13.2 ± 1		13.4 ± 1.5		10.6 ± 1.5		1.32 ± 0.25	1.62 ± 0.2 µM
C=CCn1c(=O)n(CC(=O)Nc2ccc(C(=O)NN)cc2)c(=O)c2cc(I)ccc21 [Compound 7, 2-[1-Allyl-6-iodo-2,4-dioxo-1,4-dihydroquinazolin-3(2H)-yl]-N-[4-(hydrazinecarbonyl)phenyl]acetamide]	16.5 ± 1.6		15.2 ± 1.9		15.2 ± 1.7		12.2 ± 1.5		1.5 ± 0.15	1.9 ± 0.5 µM
CNC(=O)c1ccc(NC(=O)Cn2c(=O)c3cc(I)ccc3n(Cc3ccccc3)c2=O)cc1 [Compound 13, 4-{2-[1-Benzyl-6-iodo-2,4-dioxo-1,4-dihydroquinazolin-3(2H)-yl]acetamido}-N-methylbenzamide]	8 ± 1.3	5.86	8.25 ± 1.1	5.68	7.36 ± 1.1	6.37	7.1 ± 1.1	6.60	0.5 ± 0.15	0.61 ± 0.1 µM
